Like-named read-outs stand apart in the source and are kept apart here.
Tests used:
human JAK3 = target: T1, human JAK3 (Homo sapiens, UniProt P52333); assay: JAK3 inhibition assay; type: biochemical; conditions: recombinant human JAK3 catalytic domain; polyGT substrate
T1 construct: catalytic domain (amino acids 781-1124; catalog number PV3855); purchased Invitrogen PV3855
In short: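 Radiometric kinase assay: 0.5 ng JAK3 with 2.5 μg polyGT in Tris pH 7.5/MgCl2 buffer, 1 μM ATP plus 0.25 μCi 33P-γ-ATP, 1% DMSO, 45 min at 30 °C, stopped with phosphoric acid.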

[1] = tested on: pSTAT1(2)-luciferase reporter in HeLa cells triggered with human OSM; assay: JAK-STAT signalling assay; type: cell-based; conditions: read-out: JAK-STAT IC50
In short: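 Compound added 60 min before 33 ng/mL (final) human OSM; after overnight stimulation at 37 °C, luciferase signal from a transiently transfected pSTAT1(2) reporter in HeLa cells was read, with LacZ as internal control. EC50 derived from percent-inhibition dose-response curves.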

human TYK2 = target: T2, human TYK2 (Homo sapiens, UniProt P29597); assay: TYK2 inhibition assay; type: biochemical; conditions: recombinant human TYK2 catalytic domain, polyGT substrate
T2 construct: catalytic domain (amino acids 871-1187; catalog number 08-147); purchased Carna Biosciences 08-147
T2 sequence (P29597 871-1187): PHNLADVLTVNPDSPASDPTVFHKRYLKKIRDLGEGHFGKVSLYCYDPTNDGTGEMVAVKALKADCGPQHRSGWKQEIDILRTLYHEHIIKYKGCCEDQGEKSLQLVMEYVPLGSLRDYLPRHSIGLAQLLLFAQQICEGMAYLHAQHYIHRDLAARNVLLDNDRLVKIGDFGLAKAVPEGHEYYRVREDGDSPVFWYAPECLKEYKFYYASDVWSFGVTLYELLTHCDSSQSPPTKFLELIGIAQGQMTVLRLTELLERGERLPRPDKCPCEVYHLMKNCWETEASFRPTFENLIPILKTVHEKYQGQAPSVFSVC
In short: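 Radiometric kinase reaction run 90 min at 30 °C, stopped with phosphoric acid, washed and scintillation-counted.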

human JAK1 = target: T3, human JAK1 (Homo sapiens, UniProt P23458); assay: JAK1 inhibition assay (polyGT substrate / Ulight-JAK1 peptide); type: biochemical; conditions: recombinant human JAK1 catalytic domain; polyGT or Ulight-JAK1 peptide assay
T3 construct: catalytic domain, amino acids 866-1154; catalog number PV4774; purchased Invitrogen PV4774
In short: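 Signal scaled between vehicle and 10 μM staurosporine. Radiometric polyGT reactions ran 45 min at 30 °C, counted after phosphoric-acid stop. Ulight peptide reactions ran 60 min at room temperature, fluorescence read after adding Eu-PT66 detection mix with EDTA.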

human JAK2 = target: T4, human JAK2 (Homo sapiens, UniProt O60674); assay: JAK2 inhibition assay (polyGT substrate / Ulight-JAK1 peptide); type: biochemical; conditions: recombinant human JAK2 catalytic domain; polyGT or Ulight-JAK1 peptide assay
T4 construct: catalytic domain (amino acids 808-1132; catalog number PV4210); GST; purchased Invitrogen PV4210
In short: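 Two JAK2 formats: a ^33P-ATP polyGT assay (1 μM cold ATP, 90 min, 30° C., cpm read-out) and a Ulight-JAK1 peptide assay read by Europium-anti-phosphotyrosine fluorescence after 60 min at room temperature.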

CTLL-2 cell line = assay: CTLL2 viability assay; type: cell-based; conditions: Mus musculus, IL-2 dependent CTLL2 viability, 24 h, ATP-lite
Source text: The protocol describes the methods to analyse the activity of compounds on their ability to sustain the IL2-dependent viability of CTLL2.
Final DMSO concentration was 0.1%.

[2] = Homo sapiens, HeLa, HeLa cells, pSTAT1(2)-luciferase reporter, human OSM 33 ng/mL
[3] = HeLa cells, pSTAT1(2)-luciferase reporter, human OSM 33 ng/mL

T3 sequence (P23458 866-1154): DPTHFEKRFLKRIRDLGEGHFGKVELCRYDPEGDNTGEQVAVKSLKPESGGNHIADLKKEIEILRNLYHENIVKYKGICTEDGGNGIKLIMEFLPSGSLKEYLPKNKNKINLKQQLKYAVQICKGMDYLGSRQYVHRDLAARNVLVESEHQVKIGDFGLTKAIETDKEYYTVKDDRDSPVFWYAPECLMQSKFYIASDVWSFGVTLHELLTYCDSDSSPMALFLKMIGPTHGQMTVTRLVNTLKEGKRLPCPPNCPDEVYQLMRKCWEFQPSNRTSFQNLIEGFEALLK
T4 sequence (O60674 808-1132): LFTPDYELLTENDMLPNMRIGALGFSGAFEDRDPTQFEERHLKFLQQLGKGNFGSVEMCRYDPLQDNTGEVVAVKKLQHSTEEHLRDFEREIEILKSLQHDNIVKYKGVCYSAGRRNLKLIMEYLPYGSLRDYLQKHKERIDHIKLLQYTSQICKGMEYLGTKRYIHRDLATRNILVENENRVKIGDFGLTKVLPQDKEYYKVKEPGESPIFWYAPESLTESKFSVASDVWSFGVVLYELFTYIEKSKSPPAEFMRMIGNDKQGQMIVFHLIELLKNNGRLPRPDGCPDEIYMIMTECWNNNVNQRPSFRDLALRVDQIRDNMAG
T1 sequence (P52333 781-1124): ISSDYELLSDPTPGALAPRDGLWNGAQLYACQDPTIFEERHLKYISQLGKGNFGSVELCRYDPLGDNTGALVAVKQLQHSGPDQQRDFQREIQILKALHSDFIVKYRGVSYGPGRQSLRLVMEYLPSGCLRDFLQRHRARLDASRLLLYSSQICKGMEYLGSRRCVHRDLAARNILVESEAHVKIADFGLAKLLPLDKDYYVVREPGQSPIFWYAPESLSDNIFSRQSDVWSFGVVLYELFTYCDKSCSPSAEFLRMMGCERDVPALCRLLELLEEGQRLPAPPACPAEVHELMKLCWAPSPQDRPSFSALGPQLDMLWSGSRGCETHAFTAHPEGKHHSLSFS

| IC50 (human JAK3) [nM] | IC50 (human TYK2) [nM] | IC50 (human JAK1) [nM] | IC50 [1, 2] [nM] | IC50 [1, 3] [nM] | IC50 (human JAK2) [nM] | Compound | IC50 ([1]; Homo sapiens, HeLa) [nM] | IC50 (CTLL-2 cell line) [nM] |
| --- | --- | --- | --- | --- | --- | --- | --- | --- |
| 501 to 1000 | 101 to 500 | 0.01 to 100 | 501 to 1000 |  |  | CCc1cc(O[C@@H]2CCN(S(C)(=O)=O)C2)ccc1N(C)c1cc2c(cn1)ncn2C [Compound 259, (R)-N-(2-ethyl-4-(1-(methylsulfonyl)pyrrolidin-3-yloxy)phenyl)-N,1-dimethyl-1H-imidazo[4,5-c]pyridin-6-amine] |  |  |
| > 1000 | > 1000 | 501 to 1000 |  | > 1000 |  | COc1cc(-c2cnn(C)c2)ncc1N(C)c1cc2c(cn1)ncn2C [Compound 263, N-(4-methoxy-6-(1-methyl-1H-pyrazol-4-yl)pyridin-3-yl)-N,1-dimethyl-1H-imidazo[4,5-c]pyridin-6-amine] |  |  |
| > 1000 | > 1000 | 501 to 1000 |  | > 1000 |  | COc1cc(C2CCN(C(=O)CC#N)CC2)ncc1N(C)c1cc2c(cn1)ncn2C [Compound 265] |  |  |
| > 1000 | > 1000 | > 1000 | > 1000 |  |  | CCN(c1cc2c(cn1)ncn2C)c1ccc(C#N)cc1F [Compound 266, 4-(ethyl(1-methyl-1H-imidazo[4,5-c]pyridin-6-yl)amino)-3-fluorobenzonitrile] |  |  |
| > 1000 | > 1000 | 501 to 1000 | > 1000 |  |  | CN(c1cc2c(cn1)ncn2C)c1ccc(C#N)cc1F [Compound 267, 3-fluoro-4-(methyl(1-methyl-1H-imidazo[4,5-c]pyridin-6-yl)amino)benzonitrile] |  |  |
| > 1000 | > 1000 | 101 to 500 | > 1000 |  |  | CCc1cc(CNC(=O)NC)ccc1N(C)c1cc2c(cn1)ncn2C [Compound 270, 1-(3-ethyl-4-(methyl(1-methyl-1H-imidazo[4,5-c]pyridin-6-yl)amino)benzyl)-3-methylurea] |  |  |
| 501 to 1000 | 0.01 to 100 | 0.01 to 100 | 1 to 500 |  |  | CCc1cc(OC)ccc1N(C)c1cc2c(cn1)ncn2C [Compound 271, N-(2-ethyl-4-methoxyphenyl)-N,1-dimethyl-1H-imidazo[4,5-c]pyridin-6-amine] |  |  |
| 501 to 1000 | 0.01 to 100 | 0.01 to 100 | 501 to 1000 |  |  | CCOc1ccc(N(C)c2cc3c(cn2)ncn3C)c(CC)c1 [Compound 272, N-(4-ethoxy-2-ethylphenyl)-N,1-dimethyl-1H-imidazo[4,5-c]pyridin-6-amine] |  |  |
| > 1000 | > 1000 | 0.01 to 100 |  | > 1000 |  | COc1cc(C2CCN(S(C)(=O)=O)CC2)ncc1N(C)c1cc2c(cn1)ncn2C [Compound 276] |  |  |
| 101 to 500 | 501 to 1000 | 0.01 to 100 |  | > 1000 |  | CN(c1cc2c(cn1)ncn2C)c1ccc(C2CN(S(C)(=O)=O)C2)cc1F [Compound 277, [2-Fluoro-4-(1-methanesulfonyl-azetidin-3-yl)-phenyl]-methyl-(1-methyl-1H-imidazo[4,5-c]pyridin-6-yl)-amine] |  |  |
| > 1000 | 101 to 500 | 0.01 to 100 | > 1000 |  |  | COC(=O)NCc1ccc(N(C)c2cc3c(cn2)ncn3C)c(F)c1 [Compound 283, {3-Fluoro-4-[methyl-(1-methyl-1H-imidazo[4,5-c]pyridin-6-yl)-amino]-benzyl}-carbamic acid methyl ester] |  |  |
| 101 to 500 | 0.01 to 100 | 0.01 to 100 | 501 to 1000 |  |  | CCc1ccccc1N(CC(F)F)c1cc2c(cn1)ncn2C [Compound 284, (2,2-Difluoro-ethyl)-(2-ethyl-phenyl)-(1-methyl-1H-imidazo[4,5-c]pyridin-6-yl)-amine] |  |  |
| 0.01 to 100 | 0.01 to 100 | 0.01 to 100 |  | 1 to 500 |  | CN(c1cc2c(cn1)ncn2C)c1ccc(C2CCN(S(C)(=O)=O)CC2)cc1OC(F)F [Compound 287, N-(2-(Difluoromethoxy)-4-(1-(methylsulfonyl)piperidin-4-yl)phenyl)-N,1-dimethyl-1H-imidazo[4,5-c]pyridin-6-amine] |  |  |
| 101 to 500 | 501 to 1000 | 0.01 to 100 |  |  | 101 to 500 | CN(c1cc2c(cn1)ncn2C)c1ccc(C2CN(CC(F)F)C2)cc1OC(F)F [Compound 365, {4-[1-(2,2-Difluoro-ethyl)-azetidin-3-yl]-2-difluoromethoxy-phenyl}-methyl-(1-methyl-1H-imidazo[4,5-c]pyridin-6-yl)-amine] |  | > 1000 |
| 501 to 1000 | 101 to 500 | 0.01 to 100 |  |  | 101 to 500 | CN(c1cc2c(cn1)ncn2C)c1ccc(C2CN(S(=O)(=O)N3CCCCC3)C2)cc1OC(F)F [Compound 372, {2-Difluoromethoxy-4-[1-(piperidine-1-sulfonyl)-azetidin-3-yl]-phenyl}-methyl-(1-methyl-1H-imidazo[4,5-c]pyridin-6-yl)-amine] |  | > 1000 |
| 501 to 1000 | > 1000 | 0.01 to 100 |  |  | 101 to 500 | CC(C)S(=O)(=O)N1CC(c2ccc(N(C)c3cc4c(cn3)ncn4C)c(OC(F)F)c2)C1 [Compound 373, {2-Difluoromethoxy-4-[1-(propane-2-sulfonyl)-azetidin-3-yl]-phenyl}-methyl-(1-methyl-1H-imidazo[4,5-c]pyridin-6-yl)-amine] |  | > 1000 |
| > 1000 | 101 to 500 | 0.01 to 100 |  |  | 101 to 500 | CCc1cc(C2CCN(CC#N)CC2)ncc1N(C)c1cc2c(cn1)ncn2C [Compound 384, {4-Ethyl-5-(methyl-(1-methyl-1H-imidazo[4,5-c]pyridin-6-yl)-amino)-3′,4′,5′,6′-tetrahydro-2′H-(2,4′]bipyridinyl-1′-yl}-acetonitrile] |  | > 1000 |
| 101 to 500 | 0.01 to 100 | 0.01 to 100 |  |  | 0.01 to 100 | CCc1cc(N2CC[C@@H](F)C2)ncc1N(C)c1cc2c(cn1)ncn2C [Compound 414, [4-Ethyl-6-((R)-3-fluoro-pyrrolidin-1-yl)-pyridin-3-yl]-methyl-(1-methyl-1H-imidazo[4,5-c]pyridin-6-yl)-amine] |  | > 1000 |
| 0.01 to 100 | 0.01 to 100 | 0.01 to 100 |  |  | 0.01 to 100 | CCc1cc(N2CC[C@H](F)C2)ncc1N(C)c1cc2c(cn1)ncn2C [Compound 415, [4-Ethyl-6-((S)-3-fluoro-pyrrolidin-1-yl)-pyridin-3-yl]-methyl-(1-methyl-1H-imidazo[4,5-c]pyridin-6-yl)-amine] |  | > 1000 |
| > 1000 | > 1000 | 101 to 500 |  |  | > 1000 | CCc1cc(CN2CC3(COC3)C2)ccc1N(C)c1cc2c(cn1)ncn2C [Compound 419, [2-Ethyl-4-(2-oxa-6-aza-spiro[3.3]hept-6-ylmethyl)-phenyl]-methyl-(1-methyl-1H-imidazo[4,5-c]pyridin-6-yl)-amine] |  | > 1000 |

| Compound | IC50 (human JAK3) [nM] | IC50 (human TYK2) [nM] | IC50 (human JAK1) [nM] | IC50 [1, 2] [nM] | IC50 [1, 3] [nM] | IC50 (human JAK2) [nM] | IC50 ([1]; Homo sapiens, HeLa) [nM] | IC50 (CTLL-2 cell line) [nM] |
| --- | --- | --- | --- | --- | --- | --- | --- | --- |
| CCc1cc(CNC(=O)NC#N)ccc1N(C)c1cc2c(cn1)ncn2C [Compound 258, 1-{3-Ethyl-4-[methyl-(1-methyl-1H-imidazo[4,5-c]pyridin-6-yl)-amino]-benzyl}-3-cyano-urea] | 101 to 500 | 101 to 500 | 0.01 to 100 |  |  |  | > 1000 |  |
| CCc1cc(OCC#N)ccc1N(C)c1cc2c(cn1)ncn2C [Compound 295, 2-(3-ethyl-4-(methyl(1-methyl-1H-imidazo[4,5-c]pyridin-6-yl)amino)phenoxy)acetonitrile] | 101 to 500 | 0.01 to 100 | 0.01 to 100 |  |  |  | 1 to 500 |  |
